Numbers after ± are expanded uncertainties.
Conditions: for mass density: 298.15 K, 101.33 kPa, Liquid, Pycnometric method; for Glass transition temperature / Normal melting temperature: DTA; for Normal melting temperature: Crystal

| SMILES | mass density [kg/m3] | Glass transition temperature [°C] | Normal melting temperature [°C] |
| --- | --- | --- | --- |
| CCCCCCCCn1cc[n+](C)c1.O=S(=O)([N-]S(=O)(=O)C(F)(F)F)C(F)(F)F | 1310 ± 20 | -86.00 ± 2 | – |
| CCCC[n+]1ccc(C)cc1.O=S(=O)([N-]S(=O)(=O)C(F)(F)F)C(F)(F)F | 1350 ± 20 | -80.00 ± 2 | 10.00 ± 2 |
| CCCC[n+]1ccc(C)cc1.O=S(=O)([O-])C(F)(F)C(F)(F)C(F)(F)C(F)(F)F | – | -34.00 ± 2 | 70.00 ± 2 |
| CCCC[n+]1ccn(C)c1.O=S(=O)([N-]S(=O)(=O)C(F)(F)F)C(F)(F)F | – | – | -4.00 ± 2 |
| CCCCn1cc[n+](C)c1.O=S(=O)([O-])C(F)(F)F [1-butyl-3-methylimidazolium trifluoromethanesulfonate] | – | – | 15.00 ± 2 |
| CCCC[n+]1ccc(C)cc1.O=S(=O)([O-])C(F)(F)F [1-butyl-4-methylpyridinium trifluoromethanesulfonate] | 1170 ± 20 | -68.00 ± 2 | 38.00 ± 2 |
| CCCCCCCCn1cc[n+](C)c1.O=S(=O)([O-])C(F)(F)C(F)(F)C(F)(F)C(F)(F)F [1-methyl-3-octylimidazolium perfluorobutanesulfonate] | 1330 ± 20 | -86.00 ± 2 | 32.00 ± 2 |
| CCCCCCCCn1cc[n+](C)c1.O=S(=O)([O-])C(F)(F)F [1-octyl-3-methylimidazolium trifluoromethanesulfonate] | 1120 ± 20 | -80.00 ± 2 | 5.00 ± 2 |
| CCCCCCCCn1cc[n+](C)c1.N#C[N-]C#N [3-methyl-1-octylimidazolium dicyanamide] | 1000 ± 20 | -89.00 ± 2 | -5.00 ± 2 |

Reference: the NIST ThermoML archive (doi:10.1021/je060096y)
